Tested on: brain atrophy rate in patients with a diagnosis of MCI
Experiment: VITACOG trial: whole brain atrophy per year from MRI scans (SIENA)
Type: in vivo, human
Details: for BAR (brain atrophy rate): entire study group
Description: This study was conducted as a part of the VITACOG trial, ‘Homocysteine and B vitamins in cognitive impairment’, and was carried out according to the principles of the Declaration of Helsinki and received approval of the Oxfordshire NHS research ethics committee A (COREC 04/Q1604/100). All participants gave their written informed consent. The study protocol and participants, along with inclusion and exclusion criteria, have been described in detail elsewhere (Smith et al, PLOS One 2010; 5 (9); e12244.doi10.1371/journal.pone. 0012244). In short, 646 patients above 70 years of age with a diagnosis of MCI were assessed for eligibility. After randomization of eligible subjects, and some withdrawals, 133 started treatment with TrioBe Plus® (0.8 mg folic acid, 0.5 mg vitamin B12, and 20 mg vitamin B6, specifically 0.8 mg folic acid, 0.5 mg cyanocobalamin and 20 mg pyridoxine HCl) while 133 received placebo for a duration of 24 months. Participants were only included in this study if brain atrophy data was available.
The MRI protocol used in the VITACOG study has been described in detail elsewhere (Smith et al referenced above). In short, baseline and follow-up volumetric cranial MRI scans were carried out at the Oxford Centre for Clinical Magnetic Resonance Research using a 1.5 T MRI system (Sonata; Siemens Medical Solutions, Erlangen, Germany). Whole brain atrophy per year was estimated from MR images taken at baseline and follow-up, using the fully automated SIENA protocol which provides accuracy and robustness. Normalized brain volume at baseline was estimated from a single image using a cross-sectional method (SIENAX), and used as a covariate in the statistical analyses.
IBM SPSS for Windows, version 20, was used for all statistical analyses (IBM Corp., Armonk, NY, USA). Skewed fatty acids were normalized using their natural logarithms. Unless otherwise stated, fatty acid concentrations at baseline were used for statistical analyses. The main outcome in this study was to investigate the effect of B vitamin treatment on brain atrophy rates, based on baseline omega-3 fatty acid status. Analyses of variance, were used to further examine associations between the fatty acid variables and tHcy and brain atrophy. Two correction models were used. Model A was adjusted for age, sex, and initial brain volume, while model B also adjusted for plasma tHcy, ApoE status, education level, and baseline levels of diastolic blood pressure, triglyceride concentration, and creatinine concentration. When the entire study population was included in the analysis, tHcy measured at follow-up was used as covariate since this measure most likely represents the average tHcy during the trial. When the analysis was confined to the placebo group, tHcy at baseline was used.
Differences between atrophy rate in the placebo and B vitamin groups were assessed using Student's t test, while brain atrophy rates according to different levels of fatty acids (tertiles), were analyzed using ANCOVA. Where an ANCOVA indicated significant differences between tertiles, Bonferroni corrected post hoc comparisons were made between the lowest and the two higher tertiles. […] P<0.05 was considered statistically significant in all analyses.

[1] = HIGH tHcy at follow-up, middle baseline tertile, Model A
[2] = HIGH tHcy at follow-up, middle baseline tertile, Model B
[3] = HIGH tHcy at follow-up, top baseline tertile, Model A
[4] = HIGH tHcy at follow-up, top baseline tertile, Model B
[5] = LOW tHcy at follow-up, middle baseline tertile, Model A
[6] = LOW tHcy at follow-up, middle baseline tertile, Model B
[7] = LOW tHcy at follow-up, top baseline tertile, Model A
[8] = LOW tHcy at follow-up, top baseline tertile, Model B
[9] = HIGH tHcy at follow-up, lowest baseline tertile (DHA <245 μM, EPA <136 μM), Model A
[10] = HIGH tHcy at follow-up, lowest baseline tertile (DHA <245 μM, EPA <136 μM), Model B
[11] = HIGH tHcy at follow-up, middle baseline tertile (DHA 245-345 μM, EPA 136-222 μM), Model A
[12] = HIGH tHcy at follow-up, middle baseline tertile (DHA 245-345 μM, EPA 136-222 μM), Model B
[13] = HIGH tHcy at follow-up, top baseline tertile (DHA >345 μM, EPA >222 μM), Model A
[14] = HIGH tHcy at follow-up, top baseline tertile (DHA >345 μM, EPA >222 μM), Model B
[15] = LOW tHcy at follow-up, lowest baseline tertile (DHA <245 μM, EPA <136 μM), Model A
[16] = LOW tHcy at follow-up, lowest baseline tertile (DHA <245 μM, EPA <136 μM), Model B
[17] = LOW tHcy at follow-up, middle baseline tertile (DHA 245-345 μM, EPA 136-222 μM), Model A
[18] = LOW tHcy at follow-up, middle baseline tertile (DHA 245-345 μM, EPA 136-222 μM), Model B
[19] = LOW tHcy at follow-up, top baseline tertile (DHA >345 μM, EPA >222 μM), Model A
[20] = LOW tHcy at follow-up, top baseline tertile (DHA >345 μM, EPA >222 μM), Model B

Row | Compound | Percent change of BAR compared to the lowest fatty acid tertile [1] | Percent change of BAR compared to the lowest fatty acid tertile [2] | Percent change of BAR compared to the lowest fatty acid tertile [3] | Percent change of BAR compared to the lowest fatty acid tertile [4] | Percent change of BAR compared to the lowest fatty acid tertile [5] | Percent change of BAR compared to the lowest fatty acid tertile [6] | Percent change of BAR compared to the lowest fatty acid tertile [7] | Percent change of BAR compared to the lowest fatty acid tertile [8] | BAR (brain atrophy rate) [9] | BAR (brain atrophy rate) [10] | BAR (brain atrophy rate) [11] | BAR (brain atrophy rate) [12] | BAR (brain atrophy rate) [13] | BAR (brain atrophy rate) [14] | BAR (brain atrophy rate) [15] | BAR (brain atrophy rate) [16] | BAR (brain atrophy rate) [17] | BAR (brain atrophy rate) [18] | BAR (brain atrophy rate) [19] | BAR (brain atrophy rate) [20]
1 | CC/C=C\C/C=C\C/C=C\C/C=C\C/C=C\CCCC(=O)O [20:5n-3 (EPA), Eicosapentaenoic acid] | 18% | 11% | 9.5% | 4.3% | −30% | −27% | −33% | −40% | 1.02 percent brain whole brain reduction per year | 0.98 percent brain whole brain reduction per year | 1.19 percent brain whole brain reduction per year | 1.20 percent brain whole brain reduction per year | 1.11 percent brain whole brain reduction per year | 1.13 percent brain whole brain reduction per year | 1.07 percent brain whole brain reduction per year | 1.14 percent brain whole brain reduction per year | 0.73 percent brain whole brain reduction per year | 0.76 percent brain whole brain reduction per year | 0.69 percent brain whole brain reduction per year | 0.63 percent brain whole brain reduction per year
2 | CC/C=C\C/C=C\C/C=C\C/C=C\C/C=C\C/C=C\CCC(=O)O [22:6n-3 (DHA), Docosahexaenoic acid] | 7.7% | 5.7% | 8.6% | 0.4% | −34% | −36% | −37% | −43% | 1.08 percent brain whole brain reduction per year | 1.06 percent brain whole brain reduction per year | 1.12 percent brain whole brain reduction per year | 1.14 percent brain whole brain reduction per year | 1.13 percent brain whole brain reduction per year | 1.08 percent brain whole brain reduction per year | 1.09 percent brain whole brain reduction per year | 1.20 percent brain whole brain reduction per year | 0.71 percent brain whole brain reduction per year | 0.70 percent brain whole brain reduction per year | 0.68 percent brain whole brain reduction per year | 0.62 percent brain whole brain reduction per year

Reference: patent US12161616B2, “Combination therapy comprising an omega-3 fatty acid, a folate species and a vitamin B12 species” (Oxford University Innovation Limited, priority 2014, dated 2024)
